Measurements taken from PMC5770468, “Cardiac glycoside/aglycones inhibit HIV-1 gene expression by a mechanism requiring MEK1/2-ERK1/2 signaling” (Scientific Reports, 2018).

Columns and labels:
HIV-1 Gag-GFP expression = experiment: Recovery of HIV-1 Gag-GFP expression by pathway inhibitors in the presence of CSs, HeLa rtTA-HIV(Gag-GFP) cells; type: cell-based; conditions: 12 μM U0126; 5.5 μM Selumetinib; 10 μM LY294002; 5 µM KB-R7943; CSs at ~IC80
Procedure: (§1) Figure 5 Effect of modulating NKA expression, [Ca^2+]i, and PI3K-AKT on HIV-1 gene expression. Depletion of the NKA perturbs HIV-1 RNA processing (n ≥ 3, mean, s.e.m.). HeLa rtTA-HIV(Gag-GFP) cells were transduced with two shRNAs (E6/E10) to knockdown expression of the NKA α1 subunit and their effect on HIV-1 gene expression analyzed. After positive selection of cells with puromycin for 24–48 h, HIV-1 expression was Dox induced for 20 h, and cells harvested for analyses. Total mRNA (and protein) was isolated from cells, reverse transcribed, and analyzed by qRT-PCR and data normalized to β-actin (a,c). Results are shown relative to Stuffer (+). (a) Expression levels of NKA α1 mRNAs assayed by qRT-PCR. (b) HIV-1 Gag expression assayed by p24^CA ELISA of cell lysates (40 μg). (c) Accumulation of HIV-1 US (black), SS (white), and MS (gray) mRNAs quantified by qRT-PCR. (d–g) CSs suppress HIV-1 gene expression independent of intracellular Ca^2+ flux/signaling and PI3K-AKT activation. HeLa rtTA-HIV(Gag-GFP) cells were pre-treated with either a chelator of [Ca^2+]i (5 µM BAPTA-AM, [Ca2+]ii), inhibitors of NCX Ca^2+-entry (5 µM KB-R7943, NCXi) or PI3K (10 μM LY294002, PI3Ki), or untreated (DMSO, no pathway inhibitor) for ~2 h prior to treatment with ~IC80s of CSs or DMSO for 4 h, and Dox induced for ~20 h. The pathway used by a CS to inhibit HIV-1 expression was determined by monitoring for recovery of Gag-GFP expression by measuring GFP fluorescence in cell lysates (and initially by plate scans of live/fixed cells, Supplementary Fig. S7a and S8c). (d) Levels of [Ca^2+]i measured by Fura Red AM™ (n ≥ 4, mean, s.e.m.). (e–f) Quantification of Gag-GFP expression by reducing SDS-PAGE in lysates (35 μg) of cells which were pre-treated with/without KB-R7943 (n ≥ 3–4 mean, s.e.m.). […] (g) Graph quantitating Gag expression by p24^CA ELISA in lysates of cells (35 μg) that were pre-treated with/without LY294002 (n ≥ 3, mean, s.e.m.). Statistical comparisons in (a–g) were performed as illustrated (black/gray dashed lines) or described in Methods.
Figure 6 CSs control HIV-1 gene expression through intracellular signaling. HeLa rtTA-HIV(Gag-GFP) cells were pre-treated with/without pathway inhibitor overnight (~15 h) and treated with ~IC80s of CSs. […] Graphs quantifying the activation level (phospho/total protein) of each MAP/MAPK by western blot. […] The signaling pathway(s) used by a CS to inhibit HIV-1 expression was determined by detecting Gag-GFP fluorescence in cell lysates (~35 μg) by reducing SDS-PAGE after pre-treatment of cells with a MEK1/2 (12 μM U0126, white), p38α/β/β2 (15 μM SB203580/p38i, gray), or JNK1/2/3 (1.25 μM SP600125/JNKi, hatched) inhibitor (n ≥ 5–7, 4–8, and 3–7, resp., mean, s.e.m.). […]

[Ca^2+]i = Intracellular Ca2+ by Fura Red AM in HeLa rtTA-HIV(Gag-GFP) cells; type: cell-based, human; conditions: 5 µM pre-treatment ~2 h
Procedure: as §1, with “(a) Expression levels of NKA α1 mRNAs assayed by qRT-PCR. (b) HIV-1 Gag expression assayed by p24^CA ELISA of cell lysates (40 μg).” left out, “(d–g) CSs suppress HIV-1 gene expression independent of intracellular Ca^2+ flux/signaling and PI3K-AKT activation. HeLa rtTA-HIV(Gag-GFP) cells were pre-treated with either a chelator of [Ca^2+]i (5 µM BAPTA-AM, [Ca2+]ii), inhibitors of NCX Ca^2+-entry (5 µM KB-R7943, NCXi) or PI3K (10 μM LY294002, PI3Ki), or untreated (DMSO, no pathway inhibitor) for ~2 h prior to treatment with ~IC80s of CSs or DMSO for 4 h, and Dox induced for ~20 h.” left out, “Statistical comparisons in (a–g) were performed as illustrated (black/gray dashed lines) or described in Methods.” left out

N=C(N)SCCc1ccc(OCc2ccc([N+](=O)[O-])cc2)cc1 [KB-R7943]
reversal of CS inhibition of HIV-1 Gag-GFP expression by pathway inhibitor pre-treatment (HIV-1 Gag-GFP expression): did not reverse
effect on CS-triggered rise in [Ca^2+]i ([Ca^2+]i): blocked
